One compound from patent US20190210996A1, “NOVEL COMPOUNDS” (GLAXOSMITHKLINE INTELLECTUAL PROPERTY DEVELOPMENT LIMITED, priority 2016, published 2019) can be followed below.

Holding throughout (format): cell-based
For one assay, the target named is T1, AURKA (Homo sapiens, UniProt O14965).
T1 construct: endogenous in cells; host or cells: THP-1
T1 sequence (O14965 1-403): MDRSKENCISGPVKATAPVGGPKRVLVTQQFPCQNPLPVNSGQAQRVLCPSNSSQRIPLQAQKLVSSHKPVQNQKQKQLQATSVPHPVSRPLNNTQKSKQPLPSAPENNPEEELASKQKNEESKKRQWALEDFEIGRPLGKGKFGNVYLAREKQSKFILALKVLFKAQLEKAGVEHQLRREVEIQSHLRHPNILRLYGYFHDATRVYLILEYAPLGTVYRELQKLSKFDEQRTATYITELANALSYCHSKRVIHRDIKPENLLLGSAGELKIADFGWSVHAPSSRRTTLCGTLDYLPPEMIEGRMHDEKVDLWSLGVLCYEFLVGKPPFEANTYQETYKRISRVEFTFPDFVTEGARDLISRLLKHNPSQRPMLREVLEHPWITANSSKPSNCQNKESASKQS
In words: Expression proteomics in THP-1 cells: AURKA protein level. The protocol: (§1) THP-1 cells were seeded at a concentration of 3×10^6 cells in T175 flasks with 60 mL growth medium (RPMI1640+10% FBS). […] of a 10× compound solution prepared in growth medium (DMSO), CEREBLON_PROTAC) was added and the cells were treated for the indicated time points (6 or 24 h) at 37° C., 5% CO2. For harvesting the cells were collected into falcon tubes on ice, centrifuged and washed twice in cold PBS (Life technologies). After the last washing step the supernatant was removed and the pellets were snap-frozen in liquid N2 and stored at −80° C. and lysed in 2% SDS for 3 min at 95° C. in a thermomixer (Thermo Fisher Scientific), followed by digestion of DNA with Benzonase at 37° C. for 1.5 h. Lysate was cleared by centrifugation an protein concentration in supernatant was determined by BCA assay.
(§2) Leukemia 25, 89-100 (2011).
(§3) Samples were dried in vacuo and resuspended in 0.05% trifluoroacetic acid in water. Of the sample, 50% was injected into an Ultimate3000 nanoRLSC (Dionex, Sunnyvale, Calif.) coupled to a Q Exactive HF (Thermo Fisher Scientific). Peptides were trapped on a 5 mm×300 μm C18 column (Pepmap100, 5 μm, 300 Å, Thermo Fisher Scientific) in water with 0.05% TFA at 60° C. Separation was performed on custom 50 cm×[…] (ID) reversed-phase columns (Reprosil) at 55° C. Gradient elution was performed from 2% acetonitrile to 40% acetonitrile in 0.1% formic acid and 3.5% DMSO over 2 hours. Samples were online injected into Q-Exactive HF mass spectrometers operating with a data-dependent top 10 method. MS spectra were acquired by using 60.000 resolution and an ion target of 3×10^6. Higher energy collisional dissociation (HCD) scans were performed with 35% NCE at 30.000 resolution (at m/z 200), and the ion target settings was set to 2×10^5 so as to avoid coalescence (Werner, T. et al. Ion Coalescence of Neutron Encoded TMT 10-Plex Reporter Ions. Anal. Chem. 86, 3594-3601 (2014).
(§4) The first search was performed with 30 parts per million mass tolerance for peptide precursors and 30 mD (HCD) mass tolerance for fragment ions followed by a final search using recalibrated data with a 10 parts per million mass tolerance for peptide precursors and 20 mD (HCD) mass tolerance for fragment ions. Carbamidomethylation of cysteine residues and TMT modification of lysine residues were set as fixed modifications and methionine oxidation, and N-terminal acetylation of proteins and TMT modification of peptide N-termini were set as variable modifications. […]
(§5) Nat Biotech 29, 255-265 (2011). this measure is referred to as ion area Savitski, M. M. et al. Delayed Fragmentation and Optimized Isolation Width Settings for Improvement of Protein Identification and Accuracy of Isobaric Mass Tag Quantification on Orbitrap-Type Mass Spectrometers. […]

A further assay concerns the target T2, AURKB (Homo sapiens, UniProt Q96GD4).
T2 construct: endogenous in cells; host or cells: THP-1
Briefly: Expression proteomics in THP-1 cells: AURKB protein level. The protocol: as §1, §2, §3, §4, §5

A further assay addresses T3, IRAK3 (Homo sapiens, UniProt Q9Y616).
T3 construct: endogenous in cells; host or cells: THP-1
T3 sequence (Q9Y616 1-596): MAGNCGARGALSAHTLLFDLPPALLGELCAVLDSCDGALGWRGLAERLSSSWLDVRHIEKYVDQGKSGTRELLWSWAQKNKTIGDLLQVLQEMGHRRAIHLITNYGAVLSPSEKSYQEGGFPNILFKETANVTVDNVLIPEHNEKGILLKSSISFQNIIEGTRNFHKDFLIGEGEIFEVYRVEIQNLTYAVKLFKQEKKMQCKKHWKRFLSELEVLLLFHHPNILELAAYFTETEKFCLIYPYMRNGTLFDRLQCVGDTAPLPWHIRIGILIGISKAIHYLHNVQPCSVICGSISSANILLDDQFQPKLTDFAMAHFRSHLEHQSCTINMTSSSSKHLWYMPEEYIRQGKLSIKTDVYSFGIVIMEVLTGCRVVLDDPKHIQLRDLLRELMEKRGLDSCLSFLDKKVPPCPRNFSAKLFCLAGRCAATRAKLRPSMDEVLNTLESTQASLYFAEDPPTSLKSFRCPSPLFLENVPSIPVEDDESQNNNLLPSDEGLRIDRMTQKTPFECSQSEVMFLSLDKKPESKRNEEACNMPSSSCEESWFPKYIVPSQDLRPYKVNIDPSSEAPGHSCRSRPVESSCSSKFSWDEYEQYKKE
Briefly: Expression proteomics in THP-1 cells: IRAK3 protein level. Conditions: IRAK3, THP-1 cells. On the procedure:
as §1, §2, §3, §4, §5

In another assay the target is T4, BTK (Homo sapiens, UniProt Q06187).
T4 construct: endogenous in cells; host or cells: THP-1
In words: Expression proteomics in THP-1 cells: BTK protein level. On the procedure:
as §1, §2, §3, §4, §5

T2 sequence (Q96GD4 whole entry): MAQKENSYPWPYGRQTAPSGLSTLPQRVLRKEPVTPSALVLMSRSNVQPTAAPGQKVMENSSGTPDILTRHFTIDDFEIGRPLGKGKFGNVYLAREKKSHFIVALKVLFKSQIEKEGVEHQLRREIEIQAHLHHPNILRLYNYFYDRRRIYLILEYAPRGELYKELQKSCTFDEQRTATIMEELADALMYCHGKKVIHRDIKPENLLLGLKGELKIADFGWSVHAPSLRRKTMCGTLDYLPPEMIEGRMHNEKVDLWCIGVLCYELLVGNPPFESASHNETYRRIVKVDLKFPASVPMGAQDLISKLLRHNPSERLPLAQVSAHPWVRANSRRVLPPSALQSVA
T4 sequence (Q06187 whole entry): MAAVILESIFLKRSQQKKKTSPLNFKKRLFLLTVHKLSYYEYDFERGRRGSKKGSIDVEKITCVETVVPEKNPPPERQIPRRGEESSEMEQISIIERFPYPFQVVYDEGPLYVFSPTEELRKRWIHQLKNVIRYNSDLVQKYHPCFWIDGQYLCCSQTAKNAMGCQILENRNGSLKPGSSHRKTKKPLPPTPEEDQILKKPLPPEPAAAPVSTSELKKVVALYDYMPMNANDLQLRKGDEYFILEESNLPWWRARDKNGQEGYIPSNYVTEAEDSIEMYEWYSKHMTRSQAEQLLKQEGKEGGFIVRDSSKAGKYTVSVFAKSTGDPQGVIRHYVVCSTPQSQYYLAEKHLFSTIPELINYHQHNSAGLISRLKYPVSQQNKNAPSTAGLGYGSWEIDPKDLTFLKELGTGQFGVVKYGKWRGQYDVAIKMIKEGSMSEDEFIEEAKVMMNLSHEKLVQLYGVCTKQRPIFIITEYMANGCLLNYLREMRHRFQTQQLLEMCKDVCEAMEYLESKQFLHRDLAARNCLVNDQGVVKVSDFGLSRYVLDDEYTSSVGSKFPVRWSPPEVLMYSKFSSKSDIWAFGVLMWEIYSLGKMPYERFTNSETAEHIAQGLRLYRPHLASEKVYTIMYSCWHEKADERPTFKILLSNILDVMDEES

With `CNC(=O)c1ccccc1Nc1nc(Nc2ccc(N3CCN(CCOCCOCCOCCOCC(=O)Nc4cccc5c4CN(C4CCC(=O)NC4=O)C5=O)CC3)cc2)ncc1Cl.O=CO` (stereo not shown) [CEREBLON_PROTAC, 14-(4-(4-((5-Chloro-4-((2-(methylcarbamoyl)phenyl)amino)pyrimidin-2-yl)amino)phenyl)piperazin-1-yl)-N-(2-(2,6-dioxopiperidin-3-yl)-1-oxoisoindolin-4-yl)-3,6,9,12-tetraoxatetradecan-1-amide formate], the “log2 rel. fc. to vehicle control” value at AURKA (24 h 0.1 μM, n = 1) is reported as −1.45; on AURKA (24 h 0.1 μM, n = 2), −1.00; on AURKA (24 h 1 μM, n = 1), −2.10; at AURKA (24 h 1 μM, n = 2) it was −1.93; at AURKB (24 h 0.1 μM, n = 1) it was −1.75; on AURKB (24 h 0.1 μM, n = 2), −1.44. For the same compound, the “log2 rel. fc. to vehicle control” value is on record as −0.83 at AURKB (24 h 1 μM, n = 1); −1.33 at AURKB (24 h 1 μM, n = 2); −2.25 at IRAK3 (24 h 0.1 μM, n = 1); −1.82 on IRAK3 (24 h 0.1 μM, n = 2); −1.65 on IRAK3 (24 h 1 μM, n = 1); −1.86 on IRAK3 (24 h 1 μM, n = 2). The “log2 rel. fc. to vehicle control” value on BTK (24 h 0.1 μM, n = 1) is −1.65; on BTK (24 h 0.1 μM, n = 2) it was −1.67; at BTK (24 h 1 μM, n = 1), −2.02; on BTK (24 h 1 μM, n = 2), −1.86.
